Measured values from ChEMBL document CHEMBL1201862, “PubChem BioAssay data set” (2004).
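Values below derive from 48-hour exposures of cells grown in 96-well plates, with endpoints linearly interpolated between the two concentrations bracketing the appropriate inhibition level. GI50 = concentration required for 50% inhibition of growth.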 Active and inactive are the calls of the source. Rule as the data show it: active = GI50 up to about 1.1 µM and inactive = higher.

Experiments:
Assay in all cases: NCI anticancer screen, dose series, 48 h
786-0 = tested on: 786-0
A498 = tested on: A498
CCRF-CEM = tested on: CCRF-CEM
HCT-116 = tested on: HCT-116
HOP-62 = tested on: HOP-62
Hs-578T = tested on: Hs-578T
IGROV-1 = tested on: IGROV-1
LOX IMVI = tested on: LOX IMVI
MCF7 = tested on: MCF7
MDA-MB-231 = tested on: MDA-MB-231
NCI-H23 = tested on: NCI-H23
NCI/ADR-RES = tested on: NCI/ADR-RES
OVCAR-3 = tested on: OVCAR-3
PC-3 = tested on: PC-3
SF-295 = tested on: SF-295
SK-MEL-2 = tested on: SK-MEL-2
SK-OV-3 = tested on: SK-OV-3
SNB-19 = tested on: SNB-19
NCI-H522 = tested on: NCI-H522
OVCAR-4 = tested on: OVCAR-4

Compound | GI50 (786-0) | GI50 (A498) | GI50 (CCRF-CEM) | GI50 (HCT-116) | GI50 (HOP-62) | GI50 (Hs-578T) | GI50 (IGROV-1) | GI50 (LOX IMVI) | GI50 (MCF7) | GI50 (MDA-MB-231) | GI50 (NCI-H23) | GI50 (NCI/ADR-RES) | GI50 (OVCAR-3) | GI50 (PC-3) | GI50 (SF-295) | GI50 (SK-MEL-2) | GI50 (SK-OV-3) | GI50 (SNB-19) | GI50 (NCI-H522) | GI50 (OVCAR-4)
O=C(O)c1ccc2[nH]c(=O)oc2c1 | > 100 µM (inactive) | > 100 µM (inactive) | > 100 µM (inactive) | > 100 µM (inactive) | > 100 µM (inactive) | > 100 µM (inactive) | > 100 µM (inactive) | > 100 µM (inactive) | > 100 µM (inactive) | > 100 µM (inactive) | > 100 µM (inactive) | > 100 µM (inactive) | > 100 µM (inactive) | > 100 µM (inactive) | > 100 µM (inactive) | > 100 µM (inactive) | > 100 µM (inactive) | > 100 µM (inactive) | – | –
C/C=C/C1OC(O)(C(C)C(O)[C@H](C)C2OC(=O)/C(OC)=C/C(C)=C/[C@@H](C)[C@@H](O)[C@@H](C)C(O)C(C)C/C(C)=C/C=C/C2OC)C[C@@H](OC2CC(O)C(OC(N)=O)C(C)O2)C1C (stereo not given in full) | < 0.01 µM (active) | 0.131 µM (active) | < 0.01 µM (active) | < 0.01 µM (active) | < 0.01 µM (active) | 0.889 µM (active) | < 0.01 µM (active) | < 0.01 µM (active) | < 0.01 µM (active) | < 0.01 µM (active) | < 0.01 µM (active) | < 0.0127 µM (active) | < 0.0182 µM (active) | < 0.01 µM (active) | < 0.01 µM (active) | < 0.01 µM (active) | 2.47 µM (inactive) | < 0.01 µM (active) | < 0.01 µM (active) | 3.04 µM (inactive)
COc1ccc(C2SCC(=O)N2NC(=O)C(C)Oc2ccccc2Cl)cc1 (stereo not given) | 98.6 µM (inactive) | 28.1 µM (inactive) | 31.8 µM (inactive) | 40.3 µM (inactive) | – | > 100 µM (inactive) | 56.2 µM (inactive) | 24.5 µM (inactive) | 32.4 µM (inactive) | 26.9 µM (inactive) | 67.8 µM (inactive) | 63.2 µM (inactive) | – | 33.7 µM (inactive) | 45 µM (inactive) | 18.7 µM (inactive) | – | 69.2 µM (inactive) | 51.9 µM (inactive) | 60.7 µM (inactive)
CCOC(=O)N1CCN(c2c(C)nc(C)nc2O)CC1 | > 100 µM (inactive) | > 100 µM (inactive) | > 100 µM (inactive) | > 100 µM (inactive) | > 100 µM (inactive) | > 100 µM (inactive) | > 100 µM (inactive) | > 100 µM (inactive) | > 100 µM (inactive) | > 100 µM (inactive) | > 100 µM (inactive) | > 100 µM (inactive) | > 100 µM (inactive) | > 100 µM (inactive) | > 100 µM (inactive) | – | > 100 µM (inactive) | > 100 µM (inactive) | > 100 µM (inactive) | > 100 µM (inactive)
CCCc1nc(Cl)c(Cl)c(Cl)n1 | 19.9 µM (inactive) | > 100 µM (inactive) | 8.81 µM (inactive) | 9.68 µM (inactive) | 33.7 µM (inactive) | 14.6 µM (inactive) | 17.4 µM (inactive) | 3.82 µM (inactive) | 16.1 µM (inactive) | 19.3 µM (inactive) | 18.7 µM (inactive) | 27 µM (inactive) | 6.64 µM (inactive) | 0.426 µM (active) | > 60.4 µM (inactive) | – | 53.6 µM (inactive) | 62.1 µM (inactive) | 12.4 µM (inactive) | 16 µM (inactive)
Nc1ccn(C2OC(C(OC3OC(CO)C(O)C(N)C3O)C(O)C(O)C(O)C(O)CO)C(N)C(O)C2O)c(=O)n1 (stereo not given) | 35.5 µM (inactive) | > 100 µM (inactive) | > 100 µM (inactive) | 46.3 µM (inactive) | 20.7 µM (inactive) | 1.98 µM (inactive) | 30.7 µM (inactive) | 21.7 µM (inactive) | > 100 µM (inactive) | 6.44 µM (inactive) | > 100 µM (inactive) | 49.1 µM (inactive) | 22.4 µM (inactive) | 50.7 µM (inactive) | 13.1 µM (inactive) | > 100 µM (inactive) | – | 47.3 µM (inactive) | 22.5 µM (inactive) | 3.54 µM (inactive)
O=C(/C=C/c1ccc(Cl)cc1)c1ccc(Cl)s1 | 32.9 µM (inactive) | 19.1 µM (inactive) | 27 µM (inactive) | 10.5 µM (inactive) | > 100 µM (inactive) | 40.5 µM (inactive) | 49.2 µM (inactive) | 12.2 µM (inactive) | 4.8 µM (inactive) | 60.7 µM (inactive) | 38.9 µM (inactive) | 72.1 µM (inactive) | 58.7 µM (inactive) | 63 µM (inactive) | 78.3 µM (inactive) | – | 98.6 µM (inactive) | 50.5 µM (inactive) | 64.1 µM (inactive) | 69 µM (inactive)
Cn1cnc(N2CCCC2)c(C#N)c1=O | > 100 µM (inactive) | > 100 µM (inactive) | > 100 µM (inactive) | > 100 µM (inactive) | > 100 µM (inactive) | > 100 µM (inactive) | > 100 µM (inactive) | > 100 µM (inactive) | > 100 µM (inactive) | > 100 µM (inactive) | > 100 µM (inactive) | > 100 µM (inactive) | > 100 µM (inactive) | > 100 µM (inactive) | > 100 µM (inactive) | > 100 µM (inactive) | – | > 100 µM (inactive) | > 100 µM (inactive) | > 100 µM (inactive)
COP(=O)(OC)[C@@](O)(c1ccccc1)[C@@H](O)[C@@H](O)c1ccccc1 | 64.6 µM (inactive) | > 100 µM (inactive) | 21.7 µM (inactive) | 29.3 µM (inactive) | – | > 100 µM (inactive) | 87.5 µM (inactive) | 17.8 µM (inactive) | 27.6 µM (inactive) | > 100 µM (inactive) | > 100 µM (inactive) | > 100 µM (inactive) | > 100 µM (inactive) | > 100 µM (inactive) | > 100 µM (inactive) | > 100 µM (inactive) | > 100 µM (inactive) | > 100 µM (inactive) | 37.4 µM (inactive) | > 100 µM (inactive)
CC1=NN(c2cc(Cl)c(S(=O)(=O)O)cc2Cl)C2(C1)C(Cl)C(=O)N2c1nc2ccccc2s1 (stereo not given) | > 100 µM (inactive) | 80 µM (inactive) | 30.3 µM (inactive) | > 100 µM (inactive) | – | > 100 µM (inactive) | 35 µM (inactive) | 29.4 µM (inactive) | 46.2 µM (inactive) | 42.6 µM (inactive) | 91 µM (inactive) | > 100 µM (inactive) | – | 27.8 µM (inactive) | – | > 100 µM (inactive) | – | > 100 µM (inactive) | 19.6 µM (inactive) | > 100 µM (inactive)
CSc1nc(=S)[nH]c2[nH]nc(C)c12 | > 100 µM (inactive) | 73.3 µM (inactive) | > 100 µM (inactive) | > 100 µM (inactive) | – | > 100 µM (inactive) | – | > 100 µM (inactive) | > 100 µM (inactive) | > 100 µM (inactive) | > 100 µM (inactive) | > 100 µM (inactive) | > 100 µM (inactive) | > 100 µM (inactive) | – | > 100 µM (inactive) | > 100 µM (inactive) | > 100 µM (inactive) | 55 µM (inactive) | > 100 µM (inactive)
Cn1c(-c2cccs2)cc(-c2ccsc2)c1-c1cccs1 | > 100 µM (inactive) | > 100 µM (inactive) | > 100 µM (inactive) | 16.3 µM (inactive) | > 100 µM (inactive) | 96.4 µM (inactive) | > 100 µM (inactive) | – | 5.97 µM (inactive) | 99.1 µM (inactive) | 45.9 µM (inactive) | > 100 µM (inactive) | 76.7 µM (inactive) | > 100 µM (inactive) | > 100 µM (inactive) | – | > 100 µM (inactive) | > 100 µM (inactive) | 72.8 µM (inactive) | > 100 µM (inactive)
CC[C@H](C)C1=C(OC(C)=O)[N@+]2([O-])Oc3ccc(-c4c(O)c(O)c(-c5ccc(OC(C)=O)cc5)c(OC(C)=O)c4OC(C)=O)cc3O[C@]2([C@@H](C)CC)C(=O)N1O | 14.1 µM (inactive) | 7.85 µM (inactive) | – | 10.8 µM (inactive) | 24.6 µM (inactive) | 29.3 µM (inactive) | 17 µM (inactive) | 17.5 µM (inactive) | 19.4 µM (inactive) | 17.8 µM (inactive) | 29.8 µM (inactive) | 18.5 µM (inactive) | 15 µM (inactive) | 20.6 µM (inactive) | 22.8 µM (inactive) | > 50 µM (inactive) | 17.3 µM (inactive) | 32.1 µM (inactive) | 10.6 µM (inactive) | 11.1 µM (inactive)
Nc1c(Cl)cc(-c2nc3ccccc3s2)cc1Cl | 22.6 µM (inactive) | 0.288 µM (active) | > 100 µM (inactive) | > 100 µM (inactive) | > 100 µM (inactive) | > 100 µM (inactive) | 0.328 µM (active) | – | 0.522 µM (active) | 69 µM (inactive) | – | > 100 µM (inactive) | > 100 µM (inactive) | > 100 µM (inactive) | > 100 µM (inactive) | > 100 µM (inactive) | > 100 µM (inactive) | > 100 µM (inactive) | > 100 µM (inactive) | –
CCN(CC)c1ccc(/C=C2\CCc3ccc([N+](=O)[O-])cc3C2=O)cc1 | 2.84 µM (inactive) | 2.56 µM (inactive) | 0.217 µM (active) | 0.199 µM (active) | 0.471 µM (active) | 1.26 µM (inactive) | 7.06 µM (inactive) | 0.409 µM (active) | 0.535 µM (active) | 2.61 µM (inactive) | 7.62 µM (inactive) | 1.03 µM (active) | 1.93 µM (inactive) | 1.97 µM (inactive) | 1.4 µM (inactive) | – | 4.54 µM (inactive) | 1.42 µM (inactive) | 0.912 µM (active) | > 100 µM (inactive)
